Test results as given in ChEMBL document CHEMBL3885881, “DrugMatrix”.

Species: Rattus norvegicus
Test: DrugMatrix - Regimen: Daily Repeat
Type: toxicity, organism-based, Sprague-Dawley
Parameters: regimen Daily Repeat, gender Male, age 6-8 weeks
Settings: in vivo, po, route oral GAVAGE, vehicle .5 % CMC; for ABSOLUTE BASOPHIL / ABSOLUTE EOSINOPHIL / ABSOLUTE LYMPHOCYTE / ABSOLUTE MONOCYTE / ABSOLUTE SEGMENTED NEUTROPHIL / BASOPHIL / EOSINOPHIL / ERYTHROCYTE COUNT / HEMATOCRIT / HEMOGLOBIN / LEUKOCYTE COUNT / LYMPHOCYTE / MEAN CORPUSCULAR HEMOGLOBIN / MEAN CORPUSCULAR HEMOGLOBIN CONCENTRATION / MEAN CORPUSCULAR VOLUME / MONOCYTE / NEUTROPHIL / NUCLEATED RED BLOOD CELLS / PLATELET COUNT: tissue Blood; for ALANINE AMINOTRANSFERASE / ALBUMIN / ALKALINE PHOSPHATASE / ASPARTATE AMINOTRANSFERASE / BLOOD UREA NITROGEN / CARBON DIOXIDE / CHLORIDE / CHOLESTEROL / CREATINE PHOSPHOKINASE / CREATININE / GLUCOSE / LACTATE DEHYDROGENASE / LIPASE / PHOSPHORUS / POTASSIUM / SODIUM / TOTAL BILIRUBIN / TOTAL PROTEIN / URIC ACID: tissue Plasma
[1] = 200 mg/kg, 120 h, dose level Low, time 5 day
[2] = 2500 mg/kg, 72 h, dose level High, time 3 day
[3] = 2500 mg/kg, 120 h, dose level High, time 5 day

SMILES: CCC1=C(C)CN(C(=O)NCCc2ccc(S(=O)(=O)NC(=O)N[C@H]3CC[C@H](C)CC3)cc2)C1=O [GLIMEPIRIDE]
- ABSOLUTE BASOPHIL [1]: 0 CELLS/uL
- ABSOLUTE EOSINOPHIL [1]: 0 CELLS/uL
- ABSOLUTE LYMPHOCYTE [1]: 12890.33 CELLS/uL
- ABSOLUTE MONOCYTE [1]: 43.33 CELLS/uL
- ABSOLUTE SEGMENTED NEUTROPHIL [1]: 866.33 CELLS/uL
- BASOPHIL [1]: 0%
- EOSINOPHIL [1]: 0%
- ERYTHROCYTE COUNT [1]: 5.84 x10E6/uL
- HEMATOCRIT [1]: 36.5%
- HEMOGLOBIN [1]: 14.63 G/DL
- LEUKOCYTE COUNT [1]: 13.8 x10E3/uL
- LYMPHOCYTE [1]: 93.33%
- MEAN CORPUSCULAR HEMOGLOBIN [1]: 25.03 pg
- MEAN CORPUSCULAR HEMOGLOBIN CONCENTRATION [1]: 40.1 G/DL
- MEAN CORPUSCULAR VOLUME [1]: 62.43 fL
- MONOCYTE [1]: 0.33%
- NEUTROPHIL [1]: 6.33%
- NUCLEATED RED BLOOD CELLS [1]: 0 /100WBC
- PLATELET COUNT [1]: 1124.67 x10E3/uL
- ALANINE AMINOTRANSFERASE [1]: 58.33 u/L
- ALBUMIN [1]: 4.43 G/DL
- ALKALINE PHOSPHATASE [1]: 402 u/L
- ASPARTATE AMINOTRANSFERASE [1]: 81.33 u/L
- BLOOD UREA NITROGEN [1]: 15.67 mg/dL
- CARBON DIOXIDE [1]: 31.67 mmol/L
- CHLORIDE [1]: 101.33 MEQ/L
- CHOLESTEROL [1]: 75 mg/dL
- CREATINE PHOSPHOKINASE [1]: 241.33 u/L
- CREATININE [1]: 0.18 mg/dL
- GLUCOSE [1]: 154 mg/dL
- LACTATE DEHYDROGENASE [1]: 123.67 u/L
- LIPASE [1]: 10 u/L
- PHOSPHORUS [1]: 10.53 mg/dL
- POTASSIUM [1]: 6.31 MEQ/L
- SODIUM [1]: 143.8 MEQ/L
- TOTAL BILIRUBIN [1]: 0.2 mg/dL
- TOTAL PROTEIN [1]: 6.23 G/DL
- URIC ACID [1]: 1.13 mg/dL
- ABSOLUTE BASOPHIL [2]: 0 CELLS/uL
- ABSOLUTE EOSINOPHIL [2]: 0 CELLS/uL
- ABSOLUTE LYMPHOCYTE [2]: 11733.33 CELLS/uL
- ABSOLUTE MONOCYTE [2]: 88 CELLS/uL
- ABSOLUTE SEGMENTED NEUTROPHIL [2]: 778.67 CELLS/uL
- BASOPHIL [2]: 0%
- EOSINOPHIL [2]: 0%
- ERYTHROCYTE COUNT [2]: 5.59 x10E6/uL
- HEMATOCRIT [2]: 36.03%
- HEMOGLOBIN [2]: 14.23 G/DL
- LEUKOCYTE COUNT [2]: 12.6 x10E3/uL
- LYMPHOCYTE [2]: 92.67%
- MEAN CORPUSCULAR HEMOGLOBIN [2]: 25.47 pg
- MEAN CORPUSCULAR HEMOGLOBIN CONCENTRATION [2]: 39.6 G/DL
- MEAN CORPUSCULAR VOLUME [2]: 64.33 fL
- MONOCYTE [2]: 0.67%
- NEUTROPHIL [2]: 6.67%
- NUCLEATED RED BLOOD CELLS [2]: 0.33 /100WBC
- PLATELET COUNT [2]: 1148 x10E3/uL
- ALANINE AMINOTRANSFERASE [2]: 60.33 u/L
- ALBUMIN [2]: 4.2 G/DL
- ALKALINE PHOSPHATASE [2]: 398.33 u/L
- ASPARTATE AMINOTRANSFERASE [2]: 110 u/L
- BLOOD UREA NITROGEN [2]: 16.67 mg/dL
- CARBON DIOXIDE [2]: 28 mmol/L
- CHLORIDE [2]: 102.67 MEQ/L
- CHOLESTEROL [2]: 61 mg/dL
- CREATINE PHOSPHOKINASE [2]: 802 u/L
- CREATININE [2]: 0.14 mg/dL
- GLUCOSE [2]: 165.67 mg/dL
- LACTATE DEHYDROGENASE [2]: 190 u/L
- LIPASE [2]: 10.33 u/L
- PHOSPHORUS [2]: 10.87 mg/dL
- POTASSIUM [2]: 5.99 MEQ/L
- SODIUM [2]: 143.87 MEQ/L
- TOTAL BILIRUBIN [2]: 0.1 mg/dL
- TOTAL PROTEIN [2]: 5.73 G/DL
- URIC ACID [2]: 1.47 mg/dL
- ABSOLUTE BASOPHIL [3]: 0 CELLS/uL
- ABSOLUTE EOSINOPHIL [3]: 80.67 CELLS/uL
- ABSOLUTE LYMPHOCYTE [3]: 11006.67 CELLS/uL
- ABSOLUTE MONOCYTE [3]: 128 CELLS/uL
- ABSOLUTE SEGMENTED NEUTROPHIL [3]: 1118 CELLS/uL
- BASOPHIL [3]: 0%
- EOSINOPHIL [3]: 0.67%
- ERYTHROCYTE COUNT [3]: 5.89 x10E6/uL
- HEMATOCRIT [3]: 36.97%
- HEMOGLOBIN [3]: 14.8 G/DL
- LEUKOCYTE COUNT [3]: 12.33 x10E3/uL
- LYMPHOCYTE [3]: 89.33%
- MEAN CORPUSCULAR HEMOGLOBIN [3]: 25.13 pg
- MEAN CORPUSCULAR HEMOGLOBIN CONCENTRATION [3]: 40.07 G/DL
- MEAN CORPUSCULAR VOLUME [3]: 62.73 fL
- MONOCYTE [3]: 1%
- NEUTROPHIL [3]: 9%
- NUCLEATED RED BLOOD CELLS [3]: 0 /100WBC
- PLATELET COUNT [3]: 1082.67 x10E3/uL
- ALANINE AMINOTRANSFERASE [3]: 74 u/L
- ALBUMIN [3]: 4.47 G/DL
- ALKALINE PHOSPHATASE [3]: 390 u/L
- ASPARTATE AMINOTRANSFERASE [3]: 96.33 u/L
- BLOOD UREA NITROGEN [3]: 19 mg/dL
- CARBON DIOXIDE [3]: 28.67 mmol/L
- CHLORIDE [3]: 101.33 MEQ/L
- CHOLESTEROL [3]: 72 mg/dL
- CREATINE PHOSPHOKINASE [3]: 380.67 u/L
- CREATININE [3]: 0.18 mg/dL
- GLUCOSE [3]: 132.33 mg/dL
- LACTATE DEHYDROGENASE [3]: 150.33 u/L
- LIPASE [3]: 8 u/L
- PHOSPHORUS [3]: 11.9 mg/dL
- POTASSIUM [3]: 5.72 MEQ/L
- SODIUM [3]: 145.67 MEQ/L
- TOTAL BILIRUBIN [3]: 0.23 mg/dL
- TOTAL PROTEIN [3]: 6.3 G/DL
- URIC ACID [3]: 1.5 mg/dL
